From US20240277730A1, “SUPPRESSION OF COVID-19 REPLICATION BY COVID-19 ENTRY INHIBITORS” (Board of Regents of the University of Nebraska, priority 2021, published 2024)
“And” between values parts separate entries of the source, which are not always exact repeats. Equal entries are not always repeated. “Also recorded” adds a separate entry of the source.

What was measured:
SARS-COV-2 [1] = format: cell-based
[2] = MTT cell viability assay, HEK293T-hACE2; format: cell-based; conditions: human, HEK293T-hACE2 cells
Procedure: (§1) The MTT cell viability assay of the preferred embodiment utilized HEK-293T-hACE2. UNCN1T. Vero-STAT1 knockout, and Calu-3 cells seeded at the density of 20,000 cells/well in a 96-well plate containing 100 μl complete media specific for each cell type. Cells were incubated for 12 h at 37° C., in a humidified 5% CO2 incubator for adherence. After 12-h incubation, the media was replaced with fresh media, and HEK-293T-hACE2 cells were treated with the five compounds at concentrations ranging between 0.001 to 100 μM. The Calu-3. […] Untreated cells were considered a negative control, and DMSO treated cells were considered vehicle controls. After the treatment, cells were incubated at 37° C., in humidified 5% CO2 incubator. Seventy-two hour posttreatment. 20 μl of MTT substrate (5 mg/ml) was added to each well and incubated for 4 additional hours at 37° C., in the dark. Then the culture media was carefully removed, and blue formazan crystals were dissolved in 200 μl of DMSO, and the purple color was read at 595 nm with a reference filter of 620 nm.

SARS-COV-2 [3] = format: cell-based; remark: listed apart in the source
Hu-1 S-RBD = Hu-1 S-RBD (Severe acute respiratory syndrome coronavirus 2, UniProt P0DTC2); assay: microscale thermophoresis (MST), S-RBD alone; format: binding, SARS-COV-2
[4] = test system: pseudotyped lentiviral particles expressing Spike glycoprotein of SARS-COV-2; assay: microbe, parasite or virus in culture; format: cell-based
[5] = MTT cell viability assay, UNCN1T; format: cell-based; conditions: human, UNCN1T cells
Procedure: as §1

in vitro = format: cell-based; conditions: African green monkey, Vero-STAT1 knockout cells, MTT
Procedure: as §1

[6] = MTT cell viability assay, Calu-3; format: cell-based; conditions: human, Calu-3 cells
Procedure: as §1

SARS-COV-2 [7] = assay: microbe, parasite or virus in culture; format: cell-based; conditions: read-out: IC50, inhibition of SARS-COV-2 replication
[8] = target: ACE2: SARS-COV-2 Spike RBD (Homo sapiens, UniProt Q9BYF1); assay: ACE2: SARS-COV-2 Spike RBD inhibitor screening assay (ELISA kit); parameters: species or system SARS-COV-2 / human; conditions: tested 0.25 to 5 μM in triplicate; read-out: IC50, inhibition of binding of SARS-COV-2 Spike RBD to ACE2
Sequence of ACE2: SARS-COV-2 Spike RBD (Q9BYF1 18-740): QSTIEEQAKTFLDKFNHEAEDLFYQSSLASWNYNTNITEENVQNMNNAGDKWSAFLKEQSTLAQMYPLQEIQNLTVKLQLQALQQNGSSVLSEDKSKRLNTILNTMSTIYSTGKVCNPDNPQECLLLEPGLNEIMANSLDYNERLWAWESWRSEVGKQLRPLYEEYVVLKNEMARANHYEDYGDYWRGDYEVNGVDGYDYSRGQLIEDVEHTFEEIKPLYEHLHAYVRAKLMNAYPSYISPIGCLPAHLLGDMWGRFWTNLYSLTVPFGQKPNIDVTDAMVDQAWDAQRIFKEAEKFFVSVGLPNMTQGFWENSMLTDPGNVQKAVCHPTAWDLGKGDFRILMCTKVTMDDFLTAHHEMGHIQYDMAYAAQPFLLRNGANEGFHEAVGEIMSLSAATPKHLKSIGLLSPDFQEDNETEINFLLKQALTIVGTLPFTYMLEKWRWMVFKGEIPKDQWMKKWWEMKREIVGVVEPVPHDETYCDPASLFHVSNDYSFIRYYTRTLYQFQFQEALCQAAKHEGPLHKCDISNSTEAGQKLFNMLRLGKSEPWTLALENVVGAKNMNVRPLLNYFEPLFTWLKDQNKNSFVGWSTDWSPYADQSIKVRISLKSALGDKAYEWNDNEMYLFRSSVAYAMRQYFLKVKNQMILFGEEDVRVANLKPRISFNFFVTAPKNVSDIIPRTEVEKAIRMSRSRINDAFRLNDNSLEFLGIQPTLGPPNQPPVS

SARS-COV-2 [9] = assay: antiviral activity against live SARS-COV-2 in UNCN1T cells (RT-qPCR); format: cell-based; conditions: read-out: IC50, inhibition of SARS-COV-2 replication
[10] = Severe acute respiratory syndrome coronavirus 2

Structure (SMILES)	CC50 at 72 h [2] [µM]	SARS-COV-2 infection compared with vehicle controls (SARS-COV-2 [3])	reduction in SARS-COV-2 infectivity (SARS-COV-2 [3]) [%]	pseudotype viral entry inhibition [4]	CC50 at 72 h [5] [µM]	CC50 at 72 h (in vitro) [µM]	CC50 at 72 h [6] [µM]	IC50 [8]	further results
CCC(CC)COC(=O)[C@H](C)N[P@](=O)(OC[C@H]1O[C@@](C#N)(c2ccc3c(N)ncnn23)[C@H](O)[C@@H]1O)Oc1ccccc1 [RDV, remdesivir]	–	–	–	–	–	–	–	–	reduction in dosages in RDV/formula (IIa) combination (SARS-COV-2 [1]): ≥ 2.3 fold
O=C1Nc2cc(C(F)(F)F)ccc2Oc2ccsc21 [formula (IIa), 7-(trifluoromethyl)benzo[b]-thieno[2,3-f][1,4]oxazepin-10(9H)-one]	> 100	no significant difference	~40	significant and robust viral entry inhibition	> 100	7.13	> 100	–	binding to S-RBD alone (Hu-1 S-RBD): does not binding; also recorded: does not bind; IC50 ([4]; Severe acute respiratory syndrome coronavirus 2, 48 h, read-out: IC50, inhibition of entry of pseudotyped lentiviral particles): 0.84 µM
CN1C(=O)c2ccccc2[S+]([O-])c2cc([N+](=O)[O-])ccc2S1(=O)=O (stereo not shown) [formula (Ia), 6-methyl-2-nitrodibenzo[d,g]-[1,6,2]dithiazocin-7(6H)-one 5,5, 12-trioxide]	> 100	no significant difference	~40	low level of viral entry inhibition	> 100	6.21	> 100	< 0.25 µM and ≥ 0.25 µM	IC50 (SARS-COV-2 [7]; [10]): 5.35 µM; IC50 (SARS-COV-2 [7]): 2.94 µM; IC50 (SARS-COV-2 [9]; [10]): 0.67 µM; IC50 (SARS-COV-2 [9]): 1.16 µM
CCn1c(SCC(=O)N2CCCc3ccccc32)nnc1-c1cccs1 [formula (V), 1-(3,4-dihydroquinolin-1(2H)-yl)-2-((4-ethyl-5-(thiophen-2-yl)-4H-1,2,4-triazol-3-yl)lhio)elhanone]	> 100	–	–	–	–	–	–	1.91 µM	–
OC(CNCCNc1ncccc1C(F)(F)F)Cn1ccc2ccccc21 (stereo not shown) [formula (VI), 1-(1H-indol-1-yl)-3-((2-((3-(trifluoromethyl)pyridin-2-yl)amino)ethyl)amino)-propan-2-ol]	> 100	–	–	–	–	–	–	> 5 µM	–
CN(C)/C=C1\N=C(c2cccnc2Oc2ccc(Cl)cc2)OC1=O [formula (VII), (Z)-2-(2-(4-chlorophenoxy)-pyridin-3-yl)-4-((dimethyl-amino)methylene)oxazol-5(4H)-one]	> 100	–	–	–	–	–	–	> 5 µM	–
